According to US8278306B2 (Vertex Pharmaceuticals Incorporated, priority 2006, dated 2012):

Legend:
CYP1A2 = biological target: T1, CYP1A2 (Homo sapiens, UniProt P05177); assay: Cytochrome P450 isozyme inhibition, fluorescent Vivid substrate; type: in vitro ADME; conditions: 5 nM CYP1A2, 2 μM Vivid 1A2 Blue, 60 minutes
T1 sequence (P05177 1-516): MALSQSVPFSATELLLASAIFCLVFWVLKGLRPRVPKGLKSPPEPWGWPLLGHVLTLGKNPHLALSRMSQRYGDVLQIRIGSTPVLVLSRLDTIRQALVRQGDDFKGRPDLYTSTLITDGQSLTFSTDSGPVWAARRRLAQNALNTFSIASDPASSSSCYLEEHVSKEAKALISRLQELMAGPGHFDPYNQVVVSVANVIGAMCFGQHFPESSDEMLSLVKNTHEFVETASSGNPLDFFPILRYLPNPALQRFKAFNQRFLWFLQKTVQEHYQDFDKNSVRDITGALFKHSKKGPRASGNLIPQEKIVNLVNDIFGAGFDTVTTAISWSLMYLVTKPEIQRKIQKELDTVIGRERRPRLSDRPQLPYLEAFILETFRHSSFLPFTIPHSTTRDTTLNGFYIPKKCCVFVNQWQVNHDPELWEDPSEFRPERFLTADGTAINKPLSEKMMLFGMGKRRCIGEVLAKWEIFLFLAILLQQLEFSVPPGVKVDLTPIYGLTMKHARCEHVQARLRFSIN
Procedure: (§1) Selected compounds of the invention were assayed for their ability to inhibit various cytochrome P450 isozymes, such as, for example CYP2D6, CYP2C9, CYP1A2, CYP2C19, CYP3A4, CYP2C9, and CYP3A4 (human liver microsome). Such assays are described by Crespi et al., Anal. Biochem. 248:188-90, 1997; Ekins et al., J. Pharmacol. Exp. Ther. 290, 429-38, 1999; and Ekins et al., J. Pharmacol. Exp. Ther. 291, 424-33, 1999. In a typical isozyme inhibition experiment, test compounds are placed into a microwell on a microtiter plate as an 8 nL solution (2 mM in 75% DMSO/water). The plate is centrifuged for 2 minutes at approximately 1000 rpm to shift the compound to the bottom of the well. Polyvinylpyrrolidone (PVP/10K, 100 nL, 0.2% in 75% DMSO/water) is added to the well and this excipient also centrifuged for 2 minutes at approximately 1000 rpm to ensure mixing with the compound. The plates containing the wells are dried in vacuo. Distilled water (800 nL) is added to the wells containing compound, the background control wells, and the positive control wells, followed by the addition of 200 nL of phosphate buffer (500 mM potassium phosphate butter at pH=8.4). The positive control cells contain a drug such as, for example, miconazole. Insect baculosomes (PanVera P2315) in […] phosphate buffer was added to the background control wells and the plate was scanned for compound fluorescence. […] Therefore, CYP450 isozyme (400 nL) and recycling buffer (3.3 mM glucose-6-phosphate, 0.4 units/mL glucose-6-phosphate dehydrogenase, 100 mM MgCl2, and 0.00025% Antifoam 289) in 100 mM phosphate buffer was added to each well containing compound and background control to obtain the following concentrations: 5 nM CYP3A4, 10 nM CYP2C9, 5 nM CYP1A2, 5 nM CYP2C19, and 20 nM CYP2D6. After incubation for 60 minutes, the wells were read with a fluorescent plate reader.

CYP2C9 = CYP2C9 (Homo sapiens, UniProt P11712); assay: as above; type: in vitro ADME; conditions: 10 nM CYP2C9, 1 μM Vivid 2C9 Green, 60 minutes
CYP2C9, sequence (P11712 whole entry): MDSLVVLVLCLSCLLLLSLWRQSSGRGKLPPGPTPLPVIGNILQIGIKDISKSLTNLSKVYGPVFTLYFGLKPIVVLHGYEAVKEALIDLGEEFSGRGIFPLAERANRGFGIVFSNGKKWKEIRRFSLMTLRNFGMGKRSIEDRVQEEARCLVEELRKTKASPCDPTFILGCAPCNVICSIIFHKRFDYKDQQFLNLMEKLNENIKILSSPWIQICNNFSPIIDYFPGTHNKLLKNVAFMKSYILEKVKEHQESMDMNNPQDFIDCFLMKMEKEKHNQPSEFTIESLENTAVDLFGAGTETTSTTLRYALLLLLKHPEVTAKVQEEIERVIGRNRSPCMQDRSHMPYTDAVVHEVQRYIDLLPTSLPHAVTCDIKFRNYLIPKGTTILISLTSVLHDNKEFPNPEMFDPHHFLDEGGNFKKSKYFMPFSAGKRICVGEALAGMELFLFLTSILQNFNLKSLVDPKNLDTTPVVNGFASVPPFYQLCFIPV
Procedure: as §1

CYP2C19 = CYP2C19 (Homo sapiens, UniProt P33261); assay: as above; type: in vitro ADME; conditions: 5 nM CYP2C19, 10 μM Vivid 2C19 Blue, 60 minutes
CYP2C19, sequence (P33261 whole entry): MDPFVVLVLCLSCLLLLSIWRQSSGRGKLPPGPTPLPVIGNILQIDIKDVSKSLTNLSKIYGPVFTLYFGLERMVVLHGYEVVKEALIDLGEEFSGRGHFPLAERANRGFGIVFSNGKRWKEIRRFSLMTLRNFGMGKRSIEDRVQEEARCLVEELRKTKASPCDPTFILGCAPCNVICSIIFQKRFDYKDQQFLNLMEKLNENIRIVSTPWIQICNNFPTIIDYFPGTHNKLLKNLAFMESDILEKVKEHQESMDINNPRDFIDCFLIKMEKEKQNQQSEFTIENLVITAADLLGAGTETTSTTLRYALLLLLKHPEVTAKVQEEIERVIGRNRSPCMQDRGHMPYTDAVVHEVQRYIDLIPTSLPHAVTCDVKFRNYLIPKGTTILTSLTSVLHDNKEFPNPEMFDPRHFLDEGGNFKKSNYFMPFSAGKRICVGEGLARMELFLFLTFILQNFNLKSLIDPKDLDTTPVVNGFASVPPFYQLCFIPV
Procedure: as §1

ROCK I (AA 6-553) = biological target: T2, ROCK I (AA 6-553) (Homo sapiens, UniProt Q13464); assay: ROCK inhibition assay, standard coupled enzyme system; type: biochemical; conditions: 45 nM ROCK I, 45 μM ATP, 200 μM peptide, 30° C.
T2 construct: ROCK I (AA 6-553)
T2 sequence (Q13464 6-553, species assumed): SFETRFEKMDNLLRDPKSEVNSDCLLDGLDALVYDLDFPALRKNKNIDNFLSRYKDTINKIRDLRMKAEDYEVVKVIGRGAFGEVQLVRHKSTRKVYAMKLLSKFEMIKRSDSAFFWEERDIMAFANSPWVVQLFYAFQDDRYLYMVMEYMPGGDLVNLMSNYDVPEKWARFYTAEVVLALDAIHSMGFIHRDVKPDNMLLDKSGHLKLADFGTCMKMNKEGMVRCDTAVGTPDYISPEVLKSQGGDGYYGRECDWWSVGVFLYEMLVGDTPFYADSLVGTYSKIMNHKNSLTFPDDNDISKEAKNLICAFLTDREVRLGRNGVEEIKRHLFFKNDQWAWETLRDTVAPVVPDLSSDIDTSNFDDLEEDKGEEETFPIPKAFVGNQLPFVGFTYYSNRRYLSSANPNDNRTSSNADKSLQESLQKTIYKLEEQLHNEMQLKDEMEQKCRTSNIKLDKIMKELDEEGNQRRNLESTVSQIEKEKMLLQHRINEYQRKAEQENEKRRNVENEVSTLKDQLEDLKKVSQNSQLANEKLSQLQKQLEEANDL
Procedure: Reactions were carried out in a solution containing 100 mM HEPES (pH 7.5), 10 mM MgCl2, 25 mM NaCl, 2 mM DTT and 1.5% DMSO.

CYP3A4 = CYP3A4 (Homo sapiens, UniProt P08684); assay: Cytochrome P450 isozyme inhibition, fluorescent Vivid substrate; type: in vitro ADME; conditions: 5 nM CYP3A4, 5 μM Vivid 3A4 Red, 60 minutes
CYP3A4, sequence (P08684 whole entry): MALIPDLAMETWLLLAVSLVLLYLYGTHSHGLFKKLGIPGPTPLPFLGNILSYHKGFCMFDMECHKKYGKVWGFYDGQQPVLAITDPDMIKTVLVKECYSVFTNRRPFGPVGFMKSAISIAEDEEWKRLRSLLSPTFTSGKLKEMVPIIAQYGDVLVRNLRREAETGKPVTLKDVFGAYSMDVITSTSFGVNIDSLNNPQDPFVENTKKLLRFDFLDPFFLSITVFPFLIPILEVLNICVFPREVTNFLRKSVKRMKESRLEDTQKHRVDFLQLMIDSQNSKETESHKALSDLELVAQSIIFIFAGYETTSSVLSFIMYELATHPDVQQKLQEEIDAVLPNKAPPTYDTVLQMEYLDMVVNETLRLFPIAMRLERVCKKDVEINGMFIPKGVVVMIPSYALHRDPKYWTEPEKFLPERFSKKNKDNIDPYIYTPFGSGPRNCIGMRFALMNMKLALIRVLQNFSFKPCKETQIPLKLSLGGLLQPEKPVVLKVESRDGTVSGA
Procedure: Selected compounds of the invention were assayed for their ability to inhibit various cytochrome P450 isozymes, such as, for example CYP2D6, CYP2C9, CYP1A2, CYP2C19, CYP3A4, CYP2C9, and CYP3A4 (human liver microsome). Such assays are described by Crespi et al., Anal. Biochem. 248:188-90, 1997; Ekins et al., J. Pharmacol. Exp. Ther. 290, 429-38, 1999; and Ekins et al., J. Pharmacol. Exp. Ther. 291, 424-33, 1999. […] The plate is centrifuged for 2 minutes at approximately 1000 rpm to shift the compound to the bottom of the well. […] Distilled water (800 nL) is added to the wells containing compound, the background control wells, and the positive control wells, followed by the addition of 200 nL of phosphate buffer (500 mM potassium phosphate butter at pH=8.4). The positive control cells contain a drug such as, for example, miconazole. Insect baculosomes (PanVera […]) in […] phosphate buffer was added to the background control wells and the plate was scanned for compound fluorescence. […] After incubation for 60 minutes, the wells were read with a fluorescent plate reader.

[1] = biological target: T3, CYP3A4 (human liver microsome) (Homo sapiens, UniProt P08684); assay: Cytochrome P450 inhibition, human liver microsome; type: in vitro ADME; conditions: read-out: CYP3A4 (HLM) Ki
T3 construct: CYP3A4 (human liver microsome); from tissue; host or cells: human liver microsomes
T3 sequence (P08684 whole entry): as above
Procedure: Selected compounds of the invention were assayed for their ability to inhibit various cytochrome P450 isozymes, such as, for example CYP2D6, CYP2C9, CYP1A2, CYP2C19, CYP3A4, CYP2C9, and CYP3A4 (human liver microsome). Such assays are described by Crespi et al., Anal. Biochem. 248:188-90, 1997; Ekins et al., J. Pharmacol. Exp. Ther. 290, 429-38, 1999; and Ekins et al., J. Pharmacol. Exp. Ther. 291, 424-33, 1999. […] The plate is centrifuged for 2 minutes at approximately 1000 rpm to shift the compound to the bottom of the well. […] Distilled water (800 nL) is added to the wells containing compound, the background control wells, and the positive control wells, followed by the addition of 200 nL of phosphate buffer (500 mM potassium phosphate butter at pH=8.4). The positive control cells contain a drug such as, for example, miconazole. […] After incubation for 60 minutes, the wells were read with a fluorescent plate reader.

CYP2D6 = CYP2D6 (Homo sapiens, UniProt P10635); assay: Cytochrome P450 isozyme inhibition, fluorescent Vivid substrate; type: in vitro ADME; conditions: 20 nM CYP2D6, 10 μM Vivid 2D6 Blue, 60 minutes
CYP2D6, sequence (P10635 whole entry): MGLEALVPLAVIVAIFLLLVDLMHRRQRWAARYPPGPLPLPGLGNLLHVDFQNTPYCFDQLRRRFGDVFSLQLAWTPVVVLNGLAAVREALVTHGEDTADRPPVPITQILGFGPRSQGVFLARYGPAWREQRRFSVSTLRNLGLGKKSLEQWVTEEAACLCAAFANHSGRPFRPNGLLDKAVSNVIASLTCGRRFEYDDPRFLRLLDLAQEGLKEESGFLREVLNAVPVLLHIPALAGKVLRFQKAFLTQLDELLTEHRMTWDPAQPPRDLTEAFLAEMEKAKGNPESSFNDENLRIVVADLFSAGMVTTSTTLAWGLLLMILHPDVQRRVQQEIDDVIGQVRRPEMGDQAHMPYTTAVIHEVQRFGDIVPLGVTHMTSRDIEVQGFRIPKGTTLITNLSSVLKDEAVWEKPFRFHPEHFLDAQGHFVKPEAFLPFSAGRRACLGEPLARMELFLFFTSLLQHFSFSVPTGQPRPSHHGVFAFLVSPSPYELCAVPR
Procedure: as §1

| SMILES | Ki (CYP1A2) [µM] | Ki (CYP2C9) [µM] | Ki (CYP2C19) [µM] | Ki (ROCK I (AA 6-553)) [µM] | Ki (CYP3A4) [µM] | Ki [1] [µM] | Ki (CYP2D6) [µM] |
| --- | --- | --- | --- | --- | --- | --- | --- |
| Cc1cc(-c2csc(NC(=O)Cc3cccc(OCCN4CCN(C)CC4)c3)c2)ccn1 [Compound 93] | > 10 | > 10 | > 10 | 0.1 to 1 | > 10 | > 10 |  |
| Cc1cc(-c2csc(NC(=O)Cc3cccc(OCCN4CCCCC4)c3)c2)ccn1 [Compound 94] | > 10 | > 10 | > 10 | > 1 | > 10 | > 10 |  |
| O=C(Cc1ccc(OCCN2CCNCC2)cc1Cl)Nc1cc(-c2ccnc(Cl)c2)cs1 [Compound 95] |  |  |  | < 0.1 |  |  |  |
| CN1CCN(CCOc2ccc(CC(=O)Nc3cc(-c4ccnc(Cl)c4)cs3)c(Cl)c2)CC1 [Compound 96] |  |  |  | < 0.1 |  |  |  |
| O=C(Cc1ccc(OCCCN2CCNCC2)cc1Cl)Nc1cc(-c2ccnc(Cl)c2)cs1 [Compound 97] |  |  |  | < 0.1 |  |  |  |
| CN1CCN(CCCOc2ccc(CC(=O)Nc3cc(-c4ccnc(Cl)c4)cs3)c(Cl)c2)CC1 [Compound 98] |  |  |  | < 0.1 |  |  |  |
| O=C(Cc1ccc(OCCCC2CCNCC2)cc1)Nc1cc(-c2ccnc(Cl)c2)cs1 [Compound 99] |  |  |  | < 0.1 |  |  |  |
| CS(=O)(=O)Nc1ccc(F)c(CC(=O)Nc2cc(-c3ccnc(Cl)c3)cs2)c1 [Compound 100] |  |  |  | < 0.1 |  |  |  |
| O=C(Cc1cccc(O)c1)Nc1cc(-c2ccnc(Cl)c2)cs1 [Compound 101] | 1 to 10 | 1 to 10 | 1 to 10 | < 0.1 | 1 to 10 | 1 to 10 |  |
| O=C(Cc1cccc(OCCCN2CCNCC2)c1)Nc1cc(-c2ccnc(Cl)c2)cs1 [Compound 102] | > 10 | > 10 | 1 to 10 | < 0.1 | 1 to 10 | > 10 | > 10 |
| CN1CCN(CCCOc2cccc(CC(=O)Nc3cc(-c4ccnc(Cl)c4)cs3)c2)CC1 [Compound 103] | > 10 | > 10 | > 10 | < 0.1 | > 10 | > 10 | > 10 |
| NCCC(C(=O)Nc1cc(-c2ccnc(Cl)c2)cs1)c1ccc(F)cc1F (centres unmarked) [Compound 104] |  |  |  | 0.1 to 1 |  |  |  |
| O=C(Cc1cc2c(cc1Cl)OCO2)Nc1cc(-c2ccnc(Cl)c2)cs1 [Compound 105] | 1 to 10 | 1 to 10 | < 1 | < 0.1 | 1 to 10 | 1 to 10 | < 1 |
| CN1CCN(CCOc2cccc(CC(=O)Nc3cc(-c4ccnc(N)c4)cs3)c2)CC1 [Compound 106] |  |  |  | < 0.1 |  |  |  |
